Key:
[1] = tested on: whole blood from healthy human donors; assay: Cytokine induction in vitro in whole blood from healthy human donors (Example 2.5); type: cell-based; conditions: blood diluted 1:1 in RPMI, 18 to 20 hours, averages for all 20 donors, FIG. 9; for Type I IFN induction in human whole blood (active concentration): HEK-Blue™ IFN-α/β-KO-STING reporter; for IL-1 induction in human whole blood (active concentration): HEK-Blue™ IL-1R reporter; for TNF-α induction in human whole blood (active concentration): HEK-Blue™ TNF-α reporter
From the text: HEK-Blue™ cell lines: The following three cell lines also were used for biological evaluation of the CDNs. • 1. HEK-Blue™ IFN-α/β-KO-STING: These cells are derived from HEK-Blue™ IFN-α/β cells (InvivoGen catalog code: hkb-ifnab), in which the STING gene has been inactivated. HEK-Blue™ IFN-α/β cells enable detection of bioactive human type I IFNs through monitoring of activation of the ISGF3 pathway. These cells were generated by stable transfection of HEK293 cells with the human STAT2 and IRF9 genes to obtain a fully active type I IFN signaling pathway. The other genes of the pathway (IFNAR1, IFNAR2, JAK1, TyK2 and STAT1) are naturally expressed in sufficient amounts. The cells were further transfected with a SEAP reporter gene under control of an IFN-α/β-inducible ISG54 promoter. Stimulation of HEK-Blue™ IFN-α/β cells with human IFN-α or IFN-β activates the JAK/STAT/ISGF3 pathway and subsequently induces production of SEAP. Production of Type I interferons in these cells is measured using QUANTI-Blue™. • 2. HEK-Blue™ IL-1R (InvivoGen catalog code: hkb-illr): HEK-Blue™ IL-1R cells were designed to detect bioactive human and murine IL-1β through monitoring of activation of the NF-κB and AP-1 pathways. Additionally, these cells detect bioactive IL-1β from cynomolgus monkeys, dogs and rats. In fact, HEK-Blue™ IL-1R cells can detect IL-la and IL-1(3, as these cytokines bind to the same receptor, IL-1R. These cells derive from HEK-Blue™ IL-1β cells (InvivoGen catalog code: hkb-illb), in which the TNF-α response is blocked. Therefore, HEK-Blue™ IL-1R cells respond specifically to IL-1. These cells endogenously express the human IL-1 receptor and were stably transfected with the murine IL-1 receptor, rendering them very sensitive to both human and murine IL-1(3. HEK-Blue™ IL-1R cells express a SEAP reporter gene under control of an IFN-(3 minimal promoter fused to five NF-κB and five AP-1 binding sites. Binding of IL-1β to IL-1R on the surface of HEK-Blue™ IL-1R cells triggers a signaling cascade that leads to the activation of NF-κB and subsequent production of SEAP. Production of IL-1β in these cells is measured using QUANTI-Blue™. • 3. HEK-Blue™ TNF-II-[…](InvivoGen catalog code: hkb-tnfdmyd): HEK-Blue™ TNF-α cells enable detection of bioactive human and murine TNF-α through monitoring of activation of the NF-κB pathway. These cells were generated by stable transfection of HEK293 cells with a SEAP reporter gene under control of an IFN-(3 minimal promoter fused to five NF-κB and five AP-1 binding sites. They were further rendered unresponsive to IL-1β by knocking out the MyD88 gene. Stimulation of HEK-Blue™ TNF-α cells with TNF-α triggers activation of the NF-κB-inducible promoter and production of SEAP. Production of TNF-α in these cells is measured using QUANTI-Blue™. Quantification of IL-6 in Experiments
Acquisition and Handling of Human Blood Samples
Twenty human blood samples were acquired from heathy donors at the San Diego Blood Bank (3636 Gateway Center Ave, Suite 100; San Diego, Calif. 92102; USA; www.sandiegobloodbank.org). Briefly, the samples were collected by venipuncture into sodium heparin (green-cap) tubes at the time of donation, and then stored at 4° C. until pick-up. The tubes were picked up on the day of collection, stored on ice during transport, and subsequently tested with the CDNs on the same day.
Each blood sample was diluted (1:1) in RPMI medium and aliquoted into 96-well plates (180-[…]L wells) containing each CDN at six different concentrations (30 µg/mL, 10 µg/mL, 3 µg/mL, 1 µg/mL, 0.3 µg/mL and 0.1 µg/mL). The plates were incubated at 37° C. in a CO2 incubator for 18 to 20 hours. The next day the supernatants were collected, transferred into the corresponding wells of round-bottom 96-well plates, and stored at −80° C. […]

[2] = tested on: snake-venom phosphodiesterase (SVPD); assay: Resistance to enzymatic cleavage by SVPD, monitored by UHPLC-MS (Example 2.6); conditions: 37° C., FIGS. 10A, 10C; for Resistance to enzymatic degradation by SVPD, compared with corresponding non-fluorinated ribo-CDN analog: 7 μg CDN, 160 μg SVPD in PBS with 0.6 mM MgCl2, 0 to 120 hours; for Resistance to SVPD, compared with corresponding analog containing two phosphodiester linkages: phosphorothioate vs phosphodiester fluorinated deoxyribo-CDNs
Experimental: (§1) • Enzymes used: snake-venom phosphodiesterase (SVPD) and nuclease P1 (NP1) • Subject CDNs tested: CL603, CL632, CL614 and CL656 • Reference (non-fluorinated) CDNs tested: c-GAMP and c-AIMP • Property evaluated: resistance to enzymatic cleavage
(§2) We incubated each CDN with either of two enzymes known to cleave nucleic acids and CDNs, and then looked for signs of degradation by UHPLC over time, by measuring the decrease in the area of the peak corresponding to the CDN (identified according to MS). Specifically, we assessed the resistance of the CDNs to snake-venom phosphodiesterase (SVPD) and nuclease P1 (NP1), both of which can degrade CDNs by cleaving the phosphodiester nucleotide linkages. The experiment was performed as follows:
(§3) Each CDN (7 […]g) was separately incubated with a solution (21 µL) of either enzyme (either 160 µg SVPD in PBS buffer containing 0.6 mM MgCl2; or 2.5 mU NP1 in 30 mM acetate buffer containing 2 mM ZnCl2 [pH 5.3]), or with water (as control) in a water bath at 37° C. Aliquots of the reaction mixture were collected at various time points from 0 to 120 hours, heated at 100° C. for 2 min, and then frozen at […] Finally, 10 µL of each aliquot was injected directly into the HPLC (Agilent 1290 Infinity UHPLC equipped with a UV-detector; column: Waters Acquity UPLC CSH C18 1.7 µm [2.1 mm×50 mm; flow rate: 0.3 mL/min]; detection at 254 nm; autosampler temperature: 25° C.) for analysis. The following gradient was used: 100% A (10 mM aq. ammonium formate) for 1 minute; then 100% A to 100% B (acetonitrile) over 5 minutes.
(§4) The percentage of absorbance of CDNs at each time point was calculated by dividing the peak area corresponding to the parent CDN, by the sum of all the peak areas in the chromatogram, and then multiplying by 100.

[3] = literature example (Li, 2014); cited from earlier work
nuclease P1 (NP1) = target: T1, nuclease P1 (NP1) (Penicillium citrinum, UniProt P24289); assay: Resistance to enzymatic cleavage by NP1, monitored by UHPLC-MS (Example 2.6); conditions: 7 μg CDN; 2.5 mU NP1 in 30 mM acetate buffer with 2 mM ZnCl2, pH 5.3; 37° C.; 0 to 120 hours; FIGS. 10B, 10D
T1 sequence (P24289 1-270): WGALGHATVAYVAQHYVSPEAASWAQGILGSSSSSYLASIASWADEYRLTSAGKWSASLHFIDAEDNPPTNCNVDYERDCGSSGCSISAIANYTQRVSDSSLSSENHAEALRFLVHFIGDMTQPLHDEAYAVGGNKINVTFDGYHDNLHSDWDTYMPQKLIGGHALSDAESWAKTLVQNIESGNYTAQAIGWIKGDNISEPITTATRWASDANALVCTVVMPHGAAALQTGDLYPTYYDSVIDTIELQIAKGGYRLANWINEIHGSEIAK
Experimental: as §1, §2, §3, §4

mice = assay: Cytokine induction in CDN-treated mice (Example 2.3); type: in vivo, mouse; conditions: Swiss mice; 10 mg/kg i.v.; 4 h post-injection; RAW ISG54 reporter cells; FIG. 6
From the text: Interleukin-6 was quantified using an enzyme-linked immunoassay (ELISA) according to the manufacturer's instructions (R&D Systems).
• Species evaluated: mouse • Cyclic dinucleotides tested: CL604, CL606, CL609, CL611 and CL614 • Reference compound: c-AIMP and saline • Cytokines evaluated: IFN-α/β (using RAW ISG54 reporter cells) and IL-6 (by ELISA).
Twenty-one mice (Swiss; female; mean age: 8 weeks) were divided into seven groups of three: one group served as control (saline) and the other six groups were each treated with a cyclic dinucleotide (either c-AIMP, CL604, CL606, CL609, CL611 or CL614). On Day −7, blood samples for basal cytokine levels were collected from all mice and stored at −20° C. until analysis. On Day 1, the mice were treated with either 200 μL of physiologic serum (containing 0.9% NaCl) or 200 μL of a solution of a cyclic dinucleotide (dose: 10 mg/kg) in physiologic serum (containing 0.9% NaCl), by intravenous (i.v.) injection. Blood samples were collected from the mice at 4 h post-injection, and then stored at −20° C. until analysis. Cytokine induction was measured in the sera from the blood samples.

| SMILES | Type I IFN induction in human whole blood (active concentration) [1] | IL-1 induction in human whole blood (active concentration) [1] | TNF-α induction in human whole blood (active concentration) [1] | Resistance to enzymatic degradation by SVPD, compared with corresponding non-fluorinated ribo-CDN analog [2] | Resistance to SVPD, compared with corresponding analog containing two phosphodiester linkages [2] | Resistance to enzymatic hydrolysis compared with phosphodiester analog [3] | Resistance to enzymatic degradation by NP1, compared with corresponding non-fluorinated ribo-CDN analog (nuclease P1 (NP1)) | Type I interferon (IFN-α/β) induction in sera from mice (mice) |
| --- | --- | --- | --- | --- | --- | --- | --- | --- |
| Nc1ncnc2c1ncn2C1OC2COP(=O)(S)O[C@@H]3C(COP(=O)(S)O[C@H]2[C@H]1F)OC(n1cnc2c(=O)[nH]cnc21)[C@@H]3F (mixture of isomers) [CL656] | more active than is its corresponding non-fluorinated analog | more active than is its corresponding non-fluorinated analog | more active than is its corresponding non-fluorinated analog | more resistant to enzymatic degradation | more resistant to SVPD | – | – | – |
| Nc1nc2c(ncn2[C@@H]2O[C@@H]3COP(O)(=S)O[C@H]4[C@@H](O)[C@H](n5cnc6c(N)ncnc65)O[C@@H]4COP(=O)(S)O[C@@H]2[C@@H]3O)c(=O)[nH]1 (stereo partly drawn) [(2′,3′) c-GAMP(S)] | – | – | – | – | – | more resistant to enzymatic hydrolysis | – | – |
| Nc1nc2c(ncn2C2OC3COP(=O)(O)O[C@@H]4C(COP(=O)(O)O[C@H]3[C@H]2F)OC(n2cnc3c(N)ncnc32)[C@@H]4F)c(=O)[nH]1 (some centres unmarked) [CL603] | more active than is its corresponding non-fluorinated analog | more active than is its corresponding non-fluorinated analog | more active than is its corresponding non-fluorinated analog | more resistant to enzymatic degradation | – | – | more resistant to enzymatic degradation | – |
| Nc1ncnc2c1ncn2C1OC2COP(=O)(O)O[C@H]3C(n4cnc5c(=O)[nH]cnc54)OC(COP(=O)(O)O[C@@H]1[C@@H]2O)[C@H]3O (some centres unmarked) [CL611] | – | – | – | – | – | – | – | except CL611 strongly induced Type I interferons |
| Nc1ncnc2c1ncn2C1OC2COP(=O)(O)O[C@@H]3C(COP(=O)(O)O[C@H]2[C@H]1F)OC(n1cnc2c(=O)[nH]cnc21)[C@@H]3F (some centres unmarked) [CL614] | more active than is its corresponding non-fluorinated analog | more active than is its corresponding non-fluorinated analog | more active than is its corresponding non-fluorinated analog | more resistant to enzymatic degradation | – | – | more resistant to enzymatic degradation | – |
| Nc1nc2c(ncn2C2OC3COP(=O)(S)O[C@@H]4C(COP(=O)(S)O[C@H]3[C@H]2F)OC(n2cnc3c(N)ncnc32)[C@@H]4F)c(=O)[nH]1 (some centres unmarked) [CL632] | – | – | – | more resistant to enzymatic degradation | more resistant to SVPD | – | more resistant to enzymatic degradation | – |

Source: patent US11667664B2, “Cyclic dinucleotides for cytokine induction” (KAYLA THERAPEUTICS, priority 2014, dated 2023)
